Measured values: ChEMBL document CHEMBL1129878, “Synthesis of 5-epiaragusterol A” (Bioorg Med Chem Lett, 1997)
Converted amounts (≈) assume the structure as drawn.

Columns and labels:
KB = test: The compound was tested for the inhibitory activity against the proliferation of KB cells; type: functional, cell-based; details: Homo sapiens
L1210 = test: The compound was tested in vivo for the potent antitumor activity toward L1210 leukemia in mice at the dose of 1.6 (mg/kg); type: functional, Mus musculus

Row | Structure (SMILES) | IC50 (KB) [µg/mL] | T/C (L1210) [%]
1 | C[C@@H]1C[C@H]1[C@H](C)C[C@@H](O)[C@@]1([C@H]2CC[C@H]3[C@@H]4CC[C@@H]5CC(=O)CC[C@]5(C)[C@H]4C[C@@H](O)[C@]23C)CO1 [5-EPIARAGUSTEROL A] | 0.041 (≈ 0.0894 µM) | –
2 | C[C@@H]1C[C@H]1[C@H](C)C[C@@H](O)[C@@]1([C@H]2CC[C@H]3[C@@H]4CC[C@H]5CC(=O)CC[C@]5(C)[C@H]4C[C@@H](O)[C@]23C)CO1 [ARAGUSTEROL A] | 0.042 (≈ 0.0916 µM) | 220
